Literature values, collected in patent US20130046087A1, “Substituted Cyclodextrin Derivatives Useful As Intermediates For Producing Biologically Active Materials” (Arcarios BV, priority 2010, published 2013).

Test system: rabbit model of experimental osteoarthritis
Conditions: subcutaneously administered, per Osteoarthritis and Cartilage (2008) 16:986-993

Substance: β-cyclodextrin polysulfate
- effect on cartilage lesions and osteocyte formation in the affected joints: reduced the cartilage lesions and osteocyte formation
